Assay results reported in patent US9399145B2, “Nanoscale neuromodulating platform for retina neuron activation apparatus and method” (The Board of Trustees of the University of Illinois, priority 2005, dated 2016).

Columns and labels:
[1] = biological target: T1, α1β2γ2 GABAARs (rat α1, rat β2 and human γ2S) (UniProt P18507+P62813+P63138); assay: Two-electrode voltage clamp of α1β2γ2 GABAAR-expressing Xenopus oocytes; assay type: cell-based
T1 construct: expressed in transfected cells; host or cells: Xenopus laevis oocytes
Description: Purple and gray bars indicate periods of presentation of UV light (purple) and high-intensity visible light (High-Vis) (gray), respectively. […] These amplitude determination conditions are denoted by numbers beneath the waveform in FIG. 35d.
In each of the MPC088 experiments, the cis-dominant form was generated by UV light during static bathing. […] Numbers beneath the waveform in FIG. 2(c) denote amplitude determination conditions for that experiment.
Oocytes expressing α1β2γ2 receptors (rat α1, rat β2 and human γ2S) were prepared and studied by two-electrode voltage-clamp recording^58 (holding potential: −70 mV; amplifier: GeneClamp500B; Axon Instruments, Foster City, Calif.). Unless otherwise indicated, oocytes were superfused with Ringer solution (physiological saline) at a rate of ˜1 mL/min. The experiments of FIGS. 35d-e, 36c-e and 47 involved periods of static bathing, i.e., halted superfusion. The γ2(A79C) subunit was prepared by site-directed mutagenesis. Oocyte electrophysiological experiments were carried out in room light. A UV light-emitting diode (peak wavelength: 365 nm; Hamamatsu Photonics, Japan) and a microscope illuminator (white light; Schott Fostec, Auburn, N.Y.) provided UV and visible stimulating light. As measured at the position of the oocyte, the intensity of the UV light at 365 nm was 220 μW/mm^2. At 440 nm, the nominal strength of the visible (white) light (referred to as high-intensity visible light) was 28 μW/mm^2, and that of the ambient room illumination was 0.045 μW/mm^2. In all experiments, low-intensity visible light from the microscope illuminator (3 μW/mm^2 at 440 nm) was present at all times except those involving high-intensity visible illumination. Electrophysiological data were obtained using Clampex 8.2 (Axon Instruments), analyzed using Clampfit 10.0 (Axon Instruments) and OriginPro7.5 (OriginLab, Northampton, Mass.). All statistical analysis employed a two-sample t-test.

[2] = biological target: T2, α1β2γ2 GABAARs (UniProt P18507+P62813+P63138); assay type: binding; details: 1 μM competitor added to 10 μM 23 and 3 μM GABA
T2 construct: expressed in transfected cells; host or cells: Xenopus laevis oocytes
Description: Tomlinson and Rosenthal, the linear chain of 22 is further extended by an amide-linked PEG5000 that is terminated by biotin. […] Bright-field images of the (opaque) oocytes illustrate the focus of the oocyte border during fluorescence microscopy.

[3] = Hydrophobicity (log P); assay type: physicochemical
[4] = biological target: T3, α4β3δ GABAAR (Homo sapiens, UniProt P28472+P48169); assay: Two-electrode voltage clamp of α4β3δ GABAAR-expressing oocytes; assay type: cell-based; details: 200 μM propofol and 50 nM GABA
T3 construct: expressed in transfected cells; host or cells: Xenopus oocytes
Description: Propofol is known to modulate GABAA receptors that contain a β subunit. […] Data in each group was obtained from 4 oocytes.

[5] = test system: GABAARs of cerebellar PNs; assay: Whole-cell voltage clamp of cerebellar Purkinje neurons in slices, GABA-evoked currents with UV/blue light; assay type: cell-based, mouse; details: 10 μM GABA plus 300 μM propofol
[6] = test system: GABAARs of cerebellar PNs; assay: Test for direct agonist activity on Purkinje neurons (recirculating MPC088, no exogenous GABA); assay type: cell-based, mouse; details: 30 μM gabazine added to 30 μM MPC088
Protocol: To test for direct agonist activity of MPC088 on PNs, cerebellar slices were perfused with recirculating 30 μM MPC088 (the maximal MPC088 concentration that could be reliably maintained solubilized in bicarbonate-buffered solution). MPC088 was converted to cis-dominant form by a 2-min exposure to UV light (LED, 365 nm/160 mW, Mouser, Inc., Mansfield, Tex.; LED driver, 700 mA BuckPuck DC Driver, Quadica Developments, Inc., Brantford, Ontario, Canada), before its dilution into the recirculating external solution. The same LED was then used to continuously UV-illuminate the recirculating solution for the duration of the experiment. Whole-cell voltage clamp recordings were obtained from PNs and determined the change in membrane current produced by alternating blue and UV illumination of the slice, as in the FIG. 40 experiments. […] The temporal sequence of illumination differed among the experiments (e.g., only the cell in a received multiple blue/UV exposures), but the data plotted are the amplitudes from the blue to UV transition (in the case of the cell in a, this is the blue/UV transition from the first of the three exposures). Yellow-filled data points indicate results from the experiment in a. Each data point is the average obtained from 4-10 consecutive recordings. […] Error bars represent the SEM (FIG. 42b).

Compound: CN1C(=O)CN=C(c2ccccc2)c2cc(Cl)ccc21 [diazepam, reference compound]
- potentiation factor of the 3 μM GABA response [1]: 1.92±0.36
- effect on fluorescent border from binding of 23 (competition) [2]: virtually eliminated

Compound: CC(C)c1cccc(C(C)C)c1O [propofol, reference compound]
- logP [3]: ~4
- maximum current of direct activation relative to the 100 μM GABA response [1]: about 40%
- response relative to the saturating GABA-alone response [4]: 1.2±0.1 fold
- light-induced current change [5]: little or no light-induced current change

Compound: COc1ccc(-c2ccc(=N)n(CCCC(=O)O)n2)cc1 [gabazine, reference compound]
- effect of antagonist on the MPC088-elicited response ([1]; picrotoxin 100 μg, gabazine 30 μg, bicuculline 100 μM (so in the source)): not sensitive
- average current remaining relative to the pre-gabazine current [6]: 11±3%
